Data taken from patent publication US20260169011A1, “METHODS AND COMPOSITIONS FOR PROVIDING CUSTOMIZED NUTRITIONAL SUPPLEMENTS” (Vibrant Holdings LLC, priority 2023, published 2026).
Read-outs that look alike come from different tables or passages of the source.

Tests used:
[1] = NutriPro test: serum, RBC and WBC nutrient values before and after ATB / customized blend; type: in vivo, human
Description: The method for providing a nutritional supplement for a subject as disclosed herein is based on a comprehensive panel that assesses intracellular and extracellular levels of at least or up to 41 nutrients. […] Blood analysis using the method disclosed herein tests for nutrient levels in serum, red blood cells (RBCs), and white blood cells (WBCs). Additional genetic testing can assess patients' predispositions toward nutrient deficiencies. Based on the blood and genetic analysis results, a subsequent supplementation diet comprising supplements and food sources can be designed and implemented. The subject can be a human subject.
(§1) In some embodiments, the detection method is mass spectrometry.
The ‘NutriPro’ test is used to assess serum (extracellular), RBC, and WBC (intracellular) nutrient values along with genetic testing for any predispositions with could be affecting nutrient values in the body. If required, additional tests such as the gut zoomer, cardiovascular health, thyroid test, kidney function test, liver function test, etc, are carried out. FIG. 1 provides a schematic diagram of the process of the NutriPro test from the individual subject to the creation of customized nutritional blends.
The ATB is given to the individual for nutritional supplementation, and blood testing for nutrients in serum, RBC, and WBC is carried out after 3 or 6 months.
The assessed change is called the VAF.
After testing, the individual takes the ATB or the customized blend for the amount of time indicated.

[2] = Intracellular (RBC / WBC, cellular) nutrient levels by mass spectrometry; type: in vivo, human; conditions: Level: Cells, person; for Follow-up Nutrient Level: after customized blend; for Actual Nutrient Value (ANV): before customized blend
Description: as §1

[3] = cited from earlier work
[4] = Extracellular (serum) nutrient levels by mass spectrometry (LC-MS, GC-MS, ICP-MS); conditions: for Follow-up Nutrient Level / Actual Nutrient Value (ANV): Level: Serum, person; for Follow-up Nutrient Level: after customized blend; for Actual Nutrient Value (ANV): before customized blend
Description: (§2) In some embodiments, the detection method assesses nutrients both in extracellular plasma and intracellular in RBC and WBC. In some embodiments, the detection method is mass spectroscopy-based. The extracellular and intracellular nutrient levels provide a comprehensive analysis of a subject's nutrient status, reflecting not only the intake levels but also the absorption levels into the cells.
(§3) In some aspects, the extracellular nutrient levels provide a snapshot of the status of nutrient baseline levels at a given time. It is a reflection of a person's diet over a narrow period of time. In contrast, the intracellular levels of nutrients provide information on the absorbed levels of nutrients, thus accounting for factors such as aging, lifestyle, chronic illness, medication, etc. that could interfere with absorption and can change the functional nutritional levels.
(§4) In some embodiments, the detection method is mass spectrometry. In some embodiments, the detection method is Liquid chromatography-mass spectrometry (LC-MS), Gas chromatography-mass spectrometry (GC-MS), or Inductively coupled plasma-mass-spectrometry (ICP-MS). In some embodiments, the detection method is Liquid chromatography-mass spectrometry (LC-MS). In some embodiments, the detection method is Gas chromatography-mass spectrometry (GC-MS). In some embodiments, the detection method is Inductively coupled plasma-mass-spectrometry (ICP-MS).
(§5) In some embodiments, the method provided herein evaluates nutrient levels, both in extracellular serum and inside (intracellular) red blood cells (RBC) and/or white blood cells (WBC). The extracellular nutrient levels provide a snapshot of the status of nutrient baseline levels at a given time. These extracellular nutrient levels are a reflection of a person's diet over a narrow period of time. In contrast, RBCs have a normal lifespan of 120 days, and thus intracellular assessments for nutrients in RBCs can provide information on nutrients over longer periods. Additionally, the intracellular levels of nutrients provide information on the absorbed levels of nutrients, thus accounting for factors such as, but not limited to, aging, lifestyle, chronic illness, and medication, that can interfere with absorption and can change the functional nutritional levels. Moreover, actual nutrient utilization occurs inside the cell owing to cellular metabolic processes. At times, nutrients could be present in serum, but poor cellular uptake may result in cells being devoid of these nutrients, thus giving rise to nutrient deficiencies owing to affected cellular activities. […] As a result, it is important to assess nutrients intracellularly in addition to extracellularly. Thus, the intracellular assessment provides information on cellular uptake and utilization of nutrients at the most fundamental level, enabling understanding of the root cause of nutrient deficiencies.
(§6) The subject individual fills out the health questionnaire (PHQ) which helps establishes factors such as symptoms, complications, comorbidities, and ongoing medications. The subject's blood is drawn and the extracellular serum and intracellular blood cells are tested for nutritional deficiencies via mass spectroscopy (e.g., Liquid chromatography-mass spectrometry (LC-MS), Gas chromatography-mass spectrometry (GC-MS), or Inductively coupled plasma-mass-spectrometry (ICP-MS)).

[5] = Vibrant Absorption Factor (VAF): difference of post- and pre-supplementation nutrient values divided by ATB dosage
[6] = Zone Approach: nutrient zone (Zone 1-5), target nutrient zone and follow-up zone; type: in vivo, human; conditions: Zone Approach, CB followed for three months; for change of nutrient level at follow-up testing / nutrient zone at follow-up testing: Example 5: person
Description: The second exemplary approach includes determining nutrient zones, and thus is referred to as the “Zone Approach.” According to some embodiments, the nutrient reference range for individuals can be divided into a number of zones, each indicating a nutrient wellness level. […] In some embodiments, for a given nutrient, each zone is associated with a specific multiplication factor, which can be used to determine the appropriate dosage for the CB. A few exemplary methods following this Zone Approach are further described hereinafter. […] Based on the assessment results, the current zone for each nutrient is determined at step 420a. In some embodiments, the genetic predispositions and cellular levels may influence the determination of the overall zone for a nutrient. […] This adjustment accounts for the impact of genetic polymorphisms and suboptimal cellular levels, each reducing the nutrient's zone by one or more zones. Therefore, this approach takes one or more of cellular and serum nutrient levels, along with their nutrient genetic profile into consideration to determine a given nutrient's overall zone. In the next, the Target Nutrient Zone (TNZ) to which the individual's each nutrient level is to be optimized is determined at step 430. […] In some embodiments, the determined TNZ is used to determine the multiplication factor used to adjust the starting dosage at step 440a, resulting in the CB dosage for each nutrient. In various embodiments, the multiplication factor is a fixed constant value, previously determined for a nutrient when moving from a first zone to a second zone. […] At step 450a, the CB with the determined nutrient dosages is administered to the individual for a predefined period. In some embodiments, a follow-up test is periodically conducted at step 460, to monitor the progress towards the target nutrient levels during the predefined period, for example, to check whether a target zone is reached or not for a given nutrient. In some embodiments, based on the results from the follow-up tests, it is further determined whether the dosage of the CB for a nutrient requires adjustment. If the adjustment is necessary, appropriate modification is made to the CB, for example, by increasing the TNZ to increase the nutrient levels. The modified CB is administered to the individual, and a reassessment is conducted again. In some embodiments, the personalized dosage of the nutritional supplement in the CB is modified as above after the at least one, two, three, four, five, six, seven, eight, nine, ten, or more repeats.

clinical = conditions: female, human, in vivo
Description: as §2, §3, §4, §5, §6

[7] = human, in vivo
Description: Improvement in nutrition can be determined by comparing the nutrient values in serum, RBC, and WBCs post-nutritional supplementation to the nutrient values in serum, RBC, and WBCs pre-nutritional supplementation. Based on the improvement, the change in the nutrient levels can be attributed to the per milligram dosage of the supplemented nutrients. The assessed nutritional change is the “Vibrant Absorption factor (VAF (see Equation (1) below). The VAF can be used to determine the subject's utilization of the supplemented nutrients, as determined by the difference in extracellular and intracellular nutrient values before and after supplementation. Based on the subject's utility or absorption of the nutrients, the dosage amount of the nutrient needed to be supplemented or increased to effect change of the subject's nutrient values into the optimum nutrient zone can be assessed. In various embodiments, the VAF is determined by administering a pre-determined formulation, referred to herein as the Absorption Testing Blend.
Next, the ATB is administered to the individual for a predefined period at step 320a, after which nutrient levels and the genetic nutrient profile are re-evaluated, to obtain the post-supplementation biomarker values at step 330.
This includes determining the VAF based on the difference between post- and pre-supplementation biomarker values, which is divided by the ATB dosage.
The assessed change is called the VAF. The VAF is used to understand how the individual's body is utilizing these nutrients, depending on the difference in extracellular and intracellular nutrient values before and after supplementation. Based on the body's utility or absorption of the nutrients, the amount of nutrients needed to be supplemented to alter the individual's nutrient values into the optimum nutrient zone is understood. The VAF calculations help in determining the appropriate dosages of nutrients required in the ‘customized blend.’

[8] = in vivo
Description: as §2, §3, §4, §5, §6

[9] = person one, serum, after customized blend
[10] = person two, serum, after customized blend
[11] = person three, serum, after customized blend
[12] = person three, serum, before customized blend
[13] = person one, cells, after customized blend
[14] = person two, cells, after customized blend

[Ca] [Calcium]
Post-test biomarker level ([1]; person one, serum, after ATB): 73000 ng/mL
Follow-up Biomarker level [1, 9]: 104000 ng/mL
Pre-test biomarker level ([1]; person one, serum, before ATB): 65000 ng/mL
Post-test biomarker level ([1]; person two, serum, after ATB): 59000 ng/mL
Follow-up Biomarker level [1, 10]: 104200 ng/mL
Pre-test biomarker level ([1]; person two, serum, before ATB): 54000 ng/mL
Follow-up Nutrient Level [2]: 4.2 ng/MM WBC
Actual Nutrient Value (ANV) [2]: 4.2 ng/MM WBC
UTL ([3]; Table 18, person one): 2,500 mg/day
UTL ([3]; Table 19, person two): 2,500 mg/day
UTL ([3]; upper tolerable limit): 2,500 mg/day
Follow-up Nutrient Level [4]: 6.2 mg/dL
Actual Nutrient Value (ANV) [4]: 3.1 mg/dL
VAF ([5]; person one, serum): 0.8
VAF ([5]; person two, serum): 0.5

[Cu] [Copper]
Post-test biomarker level ([1]; person one, serum, after ATB): 900 ng/mL
Follow-up Biomarker level [1, 9]: 1690 ng/mL
Pre-test biomarker level ([1]; person one, serum, before ATB): 200 ng/mL
UTL ([3]; Table 18, person one): 10 mg/day
Follow-up Nutrient Level [4]: 0.05 mg/dL
Actual Nutrient Value (ANV) [4]: 0.01 mg/dL
VAF ([5]; person one, serum): 8.75

CC/C=C\C/C=C\C/C=C\C/C=C\C/C=C\C/C=C\CCC(=O)O [DHA]
Post-test biomarker level ([1]; person two, cells, after ATB, unit not given): 1.9
Follow-up Biomarker level ([1]; person two, cells, after customized blend, unit not given): 9.4
Pre-test biomarker level ([1]; person two, cells, before ATB, unit not given): 1.2
Follow-up Nutrient Level ([2]; unit not given): 0.9
Actual Nutrient Value (ANV) ([2]; unit not given): 0.9
VAF ([5]; person two, cells): 0.14

CC/C=C\C/C=C\C/C=C\C/C=C\C/C=C\CCCC(=O)O [EPA]
Post-test biomarker level ([1]; person one, cells, after ATB, unit not given): 0.87
Follow-up Biomarker level ([1]; person one, cells, after customized blend, unit not given): 2.1
Pre-test biomarker level ([1]; person one, cells, before ATB, unit not given): 0.1
Follow-up Nutrient Level ([2]; unit not given): 0.05
Actual Nutrient Value (ANV) ([2]; unit not given): 0.05
VAF ([5]; person one, cells): 0.154

Nc1nc2ncc(CNc3ccc(C(=O)N[C@@H](CCC(=O)O)C(=O)O)cc3)nc2c(=O)[nH]1 [Folate]
Follow-up Biomarker level ([1]; female, human, in vivo): 14.5 ng/mL
Post-test biomarker level ([1]; female, human, in vivo): 3.3 ng/mL
Post-test biomarker level ([1]; person one, serum, after ATB): 2.8 ng/mL
Follow-up Biomarker level [1, 9]: 14.3 ng/mL
Pre-test biomarker level ([1]; person one, serum, before ATB): 1.2 ng/mL
Pre-test biomarker level ([1]; person two, serum, before ATB): 0.9 ng/mL
Actual Nutrient Value (ANV) [4]: 8e-05 mg/dL
concentration at 3 months ([4]; female, human, serum): 1.2 ng/mL
VAF ([5]; person one, serum): 0.032
VAF ([5]; person two, serum): 0.048

[Fe] [Iron]
Follow-up Nutrient Level ([1]; person three, cells, after customized blend): 1.141e+06 ng/mL
Actual Nutrient Value (ANV) ([1]; person three, cells, before customized blend): 620000 ng/mL
Follow-up Nutrient Level [1, 11]: 1410 ng/mL
Actual Nutrient Value (ANV) [1, 12]: 220 ng/mL
Follow-up Nutrient Level [2]: 76.5 mg/dL
Actual Nutrient Value (ANV) [2]: 76.5 mg/dL
UTL ([3]; Table 20, person three): 45 mg/day
Follow-up Nutrient Level [4]: 0.019 mg/dL
Actual Nutrient Value (ANV) [4]: 0.014 mg/dL

N[C@@H](CO)C(=O)O [L-Serine]
UTL ([3]; upper tolerable limit): 12000 mg/day
Follow-up Nutrient Level [4]: 51 nmol/mL
Actual Nutrient Value (ANV) [4]: 44 nmol/mL

NC(=O)CC[C@H](N)C(=O)O [L-glutamine, L-Glutamine]
Follow-up Biomarker level ([1]; male, human, in vivo): 697 nmol/mL
Post-test biomarker level ([1]; male, human, in vivo): 312 nmol/mL
Pre-test biomarker level ([1]; person one, serum, before ATB): 295.3 nmol/mL
Follow-up Nutrient Level [1, 11]: 677 nmol/mL
Actual Nutrient Value (ANV) [1, 12]: 290 nmol/mL
change of nutrient level at follow-up testing [6]: marginal increase
nutrient zone at follow-up testing [6]: Zone 2
concentration at 3 months (clinical): 371 µM
UTL ([3]; Table 18, person one): 14000 mg/day
UTL ([3]; Table 20, person three): 14000 mg/day
UTL ([3]; upper tolerable limit): 14000 mg/day
Actual Nutrient Value (ANV) [4]: 302 nmol/mL
VAF ([5]; person one, serum): 3.34

CCCCC/C=C\C/C=C\CCCCCCCC(=O)O [LA, linoleic acid]
nutrient levels reaching their TNZ at follow-up testing ([6]; Example 4: person three bodybuilder, named nutrients are the exceptions that did not reach the TNZ): supposed to reach the higher Zone 5

[Se] [Selenium]
Follow-up Biomarker level ([1]; female, human, in vivo): 267 ng/mL
Post-test biomarker level ([1]; female, human, in vivo): 122 ng/mL
Pre-test biomarker level ([1]; female, human, in vivo): 105 ng/mL
Actual Nutrient Value (ANV) ([1]; male, human, in vivo): 190 ng/mL
Follow-up Biomarker level ([1]; male, human, in vivo): 259 ng/mL
Follow-up Nutrient Level ([1]; male, human, in vivo): 267 ng/mL
Post-test biomarker level ([1]; male, human, in vivo): 167 ng/mL
Pre-test biomarker level ([1]; male, human, in vivo): 140 ng/mL
VAF ([7]; female): 2.267
VAF ([7]; male): 3.6

CC(C)(CO)[C@@H](O)C(=O)NCCC(=O)O [Vitamin B5]
Post-test biomarker level ([1]; person two, serum, after ATB): 23.5 ng/mL
Follow-up Biomarker level [1, 10]: 311 ng/mL
Pre-test biomarker level ([1]; person two, serum, before ATB): 14.4 ng/mL
Follow-up Nutrient Level [4]: 0.00144 mg/dL
Actual Nutrient Value (ANV) [4]: 0.00054 mg/dL
VAF ([5]; person two, serum): 18.2

O=C1O[C@H]([C@@H](O)CO)C(O)=C1O [Vitamin C]
Post-test biomarker level ([1]; person one, cells, after ATB): 1.1 pg/MM WBC
Follow-up Biomarker level [1, 13]: 9.2 pg/MM WBC
Pre-test biomarker level ([1]; person one, cells, before ATB): 0.05 pg/MM WBC
Post-test biomarker level ([1]; person two, cells, after ATB): 1.1 pg/MM WBC
Follow-up Biomarker level [1, 14]: 8.3 pg/MM WBC
Pre-test biomarker level ([1]; person two, cells, before ATB): 0.1 pg/MM WBC
Follow-up Nutrient Level [4]: 0.23 mg/dL
Actual Nutrient Value (ANV) [4]: 0.1 mg/dL
VAF ([5]; person one, cells): 0.07
VAF ([5]; person two, cells): 0.06667

C=C1CC[C@H](O)C/C1=C/C=C1\CCC[C@]2(C)[C@@H]([C@H](C)CCCC(C)C)CC[C@@H]12 [Vitamin D3]
Post-test biomarker level ([1]; person one, cells, after ATB): 18.9 pg/MM WBC
Follow-up Biomarker level [1, 13]: 212 pg/MM WBC
Pre-test biomarker level ([1]; person one, cells, before ATB): 12.2 pg/MM WBC
Post-test biomarker level ([1]; person one, serum, after ATB): 2.3 ng/mL
Follow-up Biomarker level [1, 9]: 8.7 ng/mL
Pre-test biomarker level ([1]; person one, serum, before ATB): 0.5 ng/mL
Post-test biomarker level ([1]; person two, cells, after ATB): 18.9 pg/MM WBC
Follow-up Biomarker level [1, 14]: 221 pg/MM WBC
Pre-test biomarker level ([1]; person two, cells, before ATB): 12.2 pg/MM WBC
Follow-up Nutrient Level [4]: 7.2e-05 mg/dL
Actual Nutrient Value (ANV) [4]: 1e-05 mg/dL
VAF ([5]; person one, cells): 0.067
VAF ([5]; person one, serum): 0.018
VAF ([5]; person two, cells): 0.067

Cc1ncc(COP(=O)(O)O)c(C=O)c1O [vitamin B6, Pyridoxal 5-Phosphate]
Actual Nutrient Value (ANV) ([1]; in vivo): 130 ng/mL
Follow-up Nutrient Level ([1]; in vivo): 401 ng/mL
change of nutrient level at follow-up testing [6]: moderately increased
nutrient zone at follow-up testing [6]: Zone 2
Actual Nutrient Value (ANV) [8]: 0.5 ng/mL
Follow-up Nutrient Level [8]: 0.9 ng/mL

Vitamin E
Post-test biomarker level ([1]; person one, serum, after ATB): 18200 ng/mL
Follow-up Biomarker level [1, 9]: 36500 ng/mL
Pre-test biomarker level ([1]; person one, serum, before ATB): 5500 ng/mL
Post-test biomarker level ([1]; person two, serum, after ATB): 17800 ng/mL
Follow-up Biomarker level [1, 10]: 35400 ng/mL
Pre-test biomarker level ([1]; person two, serum, before ATB): 3200 ng/mL
Follow-up Nutrient Level [4]: 0.54 mg/dL
Actual Nutrient Value (ANV) [4]: 0.42 mg/dL
VAF ([5]; person one, serum): 4.233
VAF ([5]; person two, serum): 4.867
